Reference: patent US10815247B2, “Functionalized NANOLUC inhibitors” (PROMEGA CORPORATION, priority 2016, dated 2020)
“Also recorded” adds a separate entry of the source.

Assays:
[1] = molecular target: Nluc-HT-618 in HeLa cells (Oplophorus gracilirostris, UniProt Q9GV45, A31E/A60N/A81I/F95D/I117V/K70R/L54V/L99Q/M102K/N193R/P142E/Q151K/Q38R/Q45L/V71I/Y165I); test: Inhibition of Nluc luciferase in cells (FIG. 2B); conditions: HeLa cells pre-labelled with 500 nM NanoBRET 618 ligand, 2 hours at 37° C., furimazine 190 μM
Protocol: (§4) HeLa cells were reverse transfected with expression constructs for Nluc or Nluc-HT, plated (20,000 cells/100 μL growth medium) and incubated for 24 hours. […] HeLa cells were reverse transfected with expression constructs for Nluc or Nluc-HT, plated (20,000 cells/100 μL growth medium), and incubated for 24 hours.

[2] = molecular target: Nluc-HT-TMR (Nluc-HT conjugated to TMR chloroalkane) (Oplophorus gracilirostris, UniProt Q9GV45, A31E/A60N/A81I/F95D/I117V/K70R/L54V/L99Q/M102K/N193R/P142E/Q151K/Q38R/Q45L/V71I/Y165I); test: Inhibition of Nluc luciferase by JRW-0308 (FIG. 1); conditions: 0.05 nM protein in PBS/0.05% BSA, 2 hours at room temperature, furimazine 10 μM
Protocol: (§5) Samples were analyzed after addition of furimazine (10 μM final concentration) using a BMG Clariostar plate reader.

Nluc-HT fusion protein = test: Inhibition of Nluc luciferase by JRW-0308 (FIG. 1); type: biochemical; conditions: 0.05 nM protein in PBS/0.05% BSA, 2 hours at room temperature, furimazine 10 μM
NanoLuc [3] = molecular target: T1, NanoLuc (Oplophorus gracilirostris, UniProt Q9GV45, A31E/A60N/A81I/F95D/I117V/K70R/L54V/L99Q/M102K/N193R/P142E/Q151K/Q38R/Q45L/V71I/Y165I); test: Inhibitor IC50 determination; type: biochemical
Protocol: The following example provides the IC50 values for the compounds disclosed herein. NANOLUC® enzyme was diluted to 0.4 ng/ml in CO2 independent media+10% FBS to make the detection reagent. A 3× dilution series of each inhibitor was then made in the detection reagent. A “no inhibitor” control was also made for each sample. 50 ul of each inhibitor dilution was mixed with 50 ul of NanoGlo® buffer containing 20 μM furimazine (final furimazine concentration is 10 μM, which is at Km.), and luminescence was measured. Each sample was normalized to the “no inhibitor” control. The IC50 values were then determined using GraphPad Prism (log[inhibitor] vs. normalized response).

Nluc in HeLa cells = Nluc in HeLa cells (Oplophorus gracilirostris, UniProt Q9GV45, A31E/A60N/A81I/F95D/I117V/K70R/L54V/L99Q/M102K/N193R/P142E/Q151K/Q38R/Q45L/V71I/Y165I); test: Inhibition of Nluc luciferase in cells (FIG. 2A); conditions: 2 hours at 37° C., furimazine 190 μM
Protocol: as §4

Nluc = Nluc (Oplophorus gracilirostris, UniProt Q9GV45, A31E/A60N/A81I/F95D/I117V/K70R/L54V/L99Q/M102K/N193R/P142E/Q151K/Q38R/Q45L/V71I/Y165I); test: Inhibition of Nluc luciferase by JRW-0308 (FIG. 1); conditions: 0.05 nM protein in PBS/0.05% BSA, 2 hours at room temperature, furimazine 10 μM
Protocol: as §5

[4] = tested on: Nluc-HT fusion protein in HeLa cells; test: Inhibition of Nluc luciferase in cells (FIG. 2A, 2B); type: cell-based; conditions: 2 hours at 37° C., furimazine 190 μM
NanoLuc [5] = molecular target: T1, NanoLuc; conditions: inhibitor diluted to 3 uM, NanoLuc 0.4 ng/ml, 100 uM furimazine, read at two minute intervals
Protocol: Inhibitors were diluted to 3 uM into OptiMEM+0.1% FBS. NanoLuc was diluted to 0.4 ng/ml into NanoGlo® buffer+100 uM furimazine. 50 ul of each inhibitor was added to 50 ul of the NanoLuc/furimazine/NanoGlo® solution. Samples were immediately placed in a GloMax Multi+ set to read in kinetic mode at two minute intervals.
Inhibitors were diluted to 3 uM into OptiMEM+0.1% FBS. NanoLuc was diluted to 0.4 ng/ml into NanoGlo® buffer+100 uM furimazine. 50 ul of each inhibitor was added to 50 ul of the NanoLuc/furimazine/NanoGlo® solution. Samples were immediately placed in a GloMax® Multi+ set to read in kinetic mode at two minute intervals.

NanoLuc [6] = molecular target: T1, NanoLuc; test: Suicide inhibition: displacement of inhibitor by furimazine upon dilution (FIG. 7); conditions: 10 μM Nluc + 10 μM inhibitor 30 minutes at RT, diluted to 10 pM, furimazine 10 uM
Protocol: Following dilution, 50 ul of the dilution was combined with 50 ul of NanoGlo® assay buffer.
Following dilution, 50 ul of the dilution was combined with 50 ul of NanoGlo® assay buffer. Final furimazine concentration was 10 uM.

Cetux-Fab-Nluc = test: EGFR/Cetuximab binding assay with inhibitor and PBS wash (FIG. 9); type: biochemical; conditions: 1 μM inhibitor for 5 or 30 minutes, PBS wash 0, 10, 30, or 60 minutes, furimazine 10 μM
Protocol: Cetux-Fab-Nluc competes with Cetuximab for binding of EGFR. […] Following the first reading, 1 μM inhibitor is added for a period of 5 minutes or 30 minutes. The plates were subsequently washed with PBS for 0, 10, 30, or 60 minutes.

NanoLuc [7] = molecular target: T1, NanoLuc; test: Multiplexing luciferases with the same wavelength (FIG. 11); type: biochemical; conditions: 100 uM JRW-0552 solution in NanoGlo buffer, 0.4 ng/ml NanoLuc, kinetic read
Protocol: (§1) Three conditions are represented in this figure: 1) NanoLuc with JRW-0552; 2) NanoLuc and HiBiT with JRW-0552; and 3) NanoLuc and LgBiT with JRW-0552. At the 50 minute mark, an addition is done in each condition: 1) furimazine; 2) furimazine; and 3) LgBiT, furimazine, and HiBiT, respectively.
(§2) The following solutions were prepared in TBS+20 uM furimazine: 1) 0.4 ng/ml NanoLuc, 2) 0.4 ng/ml NanoLuc+0.2 nM HaloTag-HiBiT, 3) 0.4 ng/ml NanoLuc+200 nM LgBiT. 50 ul of each solution was combined in triplicate with a solution containing 100 uM JRW-0552 diluted into NanoGlo® buffer.
(§3) After 50 minutes, 100 ul of the following solutions were added to the corresponding samples: 1) NanoGlo® buffer+50 uM furimazine, 2) NanoGlo® buffer+50 uM furimazine+200 nM LgBiT, 3) NanoGlo® buffer+50 uM furimazine+0.2 nM HaloTag-HiBiT.

[8] = tested on: NanoBiT (LgBiT and HaloTag-HiBiT); test: as above; type: biochemical; conditions: 100 uM JRW-0552 solution; LgBiT 200 nM, HaloTag-HiBiT 0.2 nM added after 50 minutes
Protocol: as §1, §2, §3

T1 sequence (Q9GV45 28-196 with tags or gaps with the stated changes limits assumed): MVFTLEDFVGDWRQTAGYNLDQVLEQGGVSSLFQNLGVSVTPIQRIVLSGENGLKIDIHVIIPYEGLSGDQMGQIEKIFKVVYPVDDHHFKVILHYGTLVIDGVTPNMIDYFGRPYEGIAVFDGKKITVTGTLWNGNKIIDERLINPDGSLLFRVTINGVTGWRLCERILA
Chain of Nluc in HeLa cells (Q9GV45 28-196 with tags or gaps with the stated changes limits assumed): as above
Chain of Nluc (Q9GV45 28-196 with tags or gaps with the stated changes limits assumed): as above
Chain of Nluc-HT-618 in HeLa cells (Q9GV45 28-196 with tags or gaps with the stated changes limits assumed): as above
Chain of Nluc-HT-TMR (Nluc-HT conjugated to TMR chloroalkane) (Q9GV45 28-196 with tags or gaps with the stated changes limits assumed): as above

`CCN(C(=O)Cn1c(C(=O)N[C@H]2CC[C@H](C(=O)NCCCCCCNC(=O)OCCOCCOCCOC(=O)NCCOCCOCCCCCCCl)CC2)cc2sccc21)c1cccc(C)c1` [JRW-0308] was tested, and the “inhibition of Nluc-HT-618 in cells” value [1] was “higher concentrations of JRW-0308 are necessary”, the “inhibition of Nluc-HT-TMR” value [2] was “higher concentrations are required” and the “inhibition of Nluc-HT fusion protein” value (Nluc-HT fusion protein) was “potently inhibits”. The IC50 (NanoLuc [3]) was 0.022 µM, the “inhibition of Nluc in cells” value (Nluc in HeLa cells) was “higher concentrations are required” and the “inhibition of Nluc alone” value (Nluc) was “higher concentrations are required”. The “inhibition of Nluc-HT fusion protein in cells” value [4] was “potently inhibits”.

`CCN(C(=O)Cn1c(C(=O)N[C@H]2CC[C@H](C(=O)NCCCCCCCC(=O)NCCOCCOCCC(=O)ON3C(=O)CCC3=O)CC2)cc2sccc21)c1cccc(C)c1` [JRW-0544, 2,5-dioxopyrrolidin-1-yl 1-(trans-4-(4-(2-(ethyl(m-tolyl)amino)-2-oxoethyl)-4H-thieno[3,2-b]pyrrole-5-carboxamido)cyclohexyl)-1,10-dioxo-14,17-dioxa-2,11-diazaicosan-20-oate] was tested, and the “Nluc inhibition over time (kinetic light output)” value (from here on “Nluc inhibition over time”) (NanoLuc [5]) was “steady state binding” and the IC50 (NanoLuc [3]) was 0.013 µM.

With `CCN(C(=O)Cn1c(C(=O)N[C@H]2CC[C@H](C(=O)OC)CC2)cc2sccc21)c1cccc(CCCBr)c1` [JRW-0548, methyl trans-4-(4-(2-((3-(3-bromopropyl)phenyl)(ethyl)amino)-2-oxoethyl)-4H-thieno[3,2-b]pyrrole-5-carboxamido)cyclohexane-1-carboxylate] the “Nluc inhibition over time” value (NanoLuc [5]) was “steady state inhibition” and the IC50 (NanoLuc [3]) was 0.099 µM.

`CCN(C(=O)Cn1c(C(=O)N[C@H]2CC[C@H](C(=O)NCCCCCCCC(=O)ON3C(=O)CCC3=O)CC2)cc2sccc21)c1cccc(C)c1` [JRW-0552] was tested, and the “displacement of inhibitor by furimazine upon dilution” value (NanoLuc [6]) was “not displaced”, the “reversibility of Nluc inhibition” value (NanoLuc [6]) was “irreversible inhibition; also recorded: irreversibly inhibit” and the “Nluc inhibition over time” value (NanoLuc [5]) was “time dependent inhibition”. The “reversibility of inhibition after PBS wash” value (Cetux-Fab-Nluc) was “irreversible”, the IC50 (NanoLuc [3]) was 0.0029 µM and the “inhibition of NanoLuc signal” value (NanoLuc [7]) was “selectively inhibits”. For the same compound, the “activity of NanoBiT configurations in presence of inhibitor” value [8] was “remain operational”.
